ChEMBL document CHEMBL1129824, “Nonpeptidic inhibitors of recombinant human calpain I” (Bioorg Med Chem Lett, 1997)

Columns and labels:
[1] = target: T1, Calpain-1 catalytic subunit (Homo sapiens, UniProt P07384); experiment: Inhibitory activity using recombinant human Calpain 1 with Suc-Leu-Tyr-MNA as substrate.
T1 sequence (P07384 whole entry): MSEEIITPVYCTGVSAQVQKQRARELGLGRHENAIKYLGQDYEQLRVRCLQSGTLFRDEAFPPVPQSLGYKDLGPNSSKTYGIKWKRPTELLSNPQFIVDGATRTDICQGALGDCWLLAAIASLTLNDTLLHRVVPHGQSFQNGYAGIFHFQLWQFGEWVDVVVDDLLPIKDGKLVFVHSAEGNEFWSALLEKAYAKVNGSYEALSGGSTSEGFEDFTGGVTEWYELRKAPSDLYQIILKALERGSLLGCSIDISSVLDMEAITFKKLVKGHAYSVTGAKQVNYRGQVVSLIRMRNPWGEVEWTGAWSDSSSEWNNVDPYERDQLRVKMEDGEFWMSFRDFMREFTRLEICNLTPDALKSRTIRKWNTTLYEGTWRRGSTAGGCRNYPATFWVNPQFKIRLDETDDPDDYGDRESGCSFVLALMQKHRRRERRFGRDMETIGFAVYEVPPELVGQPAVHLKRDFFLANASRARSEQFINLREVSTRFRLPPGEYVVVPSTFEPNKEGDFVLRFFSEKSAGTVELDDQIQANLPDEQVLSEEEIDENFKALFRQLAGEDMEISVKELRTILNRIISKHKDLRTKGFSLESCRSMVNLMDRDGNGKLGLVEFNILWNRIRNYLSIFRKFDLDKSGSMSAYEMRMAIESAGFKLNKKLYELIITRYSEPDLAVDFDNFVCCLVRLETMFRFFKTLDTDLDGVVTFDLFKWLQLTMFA

[2] = target: Prothrombin (Homo sapiens) (UniProt P00734); experiment: Inhibitory activity using serine protease, thrombin with Cbz-Phe-Val-Arg-AMC as substrate. The percent inhibition at 10 uM concentration, was reported.
[3] = target: Chymotrypsinogen A (Bos taurus) (UniProt P00766); experiment: Inhibitory activity using serine protease, alpha-chymotrypsin with Succ-Ala-Ala-Pro-Phe-AMC as substrate. The percent inhibition at 10 uM concentration, was reported.
Cathepsin B = Cathepsin B (Homo sapiens, UniProt P07858); experiment: Inhibitory activity using cysteine protease, Cathepsin B with Cbz-Phe-Arg-AMC as substrate.

IC50 [1] | inhibition [2] | inhibition [3] | IC50 (Cathepsin B) | Compound
30 nM | 2% | 18% | 60 nM | CC(C)C[C@H](CC[S+]([O-])c1ccc2ccccc2c1)C(=O)N[C@H](C=O)CC(C)C (some centres not stated)
75 nM | 5% | 11% | 60 nM | CC(C)C[C@H](CCSc1ccc2ccccc2c1)C(=O)N[C@H](C=O)CC(C)C
 | 2% | 12% |  | CC(C)C[C@@H](CCS(=O)(=O)c1ccc2ccccc2c1)C(=O)N[C@H](C=O)CC(C)C
 | 1% | 11% |  | CC(C)C[C@H](CCS(=O)(=O)c1ccc2ccccc2c1)C(=O)N[C@H](C=O)CC(C)C
